The source of these data is US8959984B2, “Proteome-wide quantification of small molecule binding to cellular target proteins” (priority 2007, dated 2015).

In general, Kd refers to the equilibrium constant for the complex coming apart. Usually Ki stands for a dissociation constant, usually derived from enzyme kinetics or from competition with a known ligand. Higher therefore signals a looser hold on the target.

Experiment [1] deals with T1, GAK (Homo sapiens, UniProt O14976).
T1 sequence (O14976 1-1311): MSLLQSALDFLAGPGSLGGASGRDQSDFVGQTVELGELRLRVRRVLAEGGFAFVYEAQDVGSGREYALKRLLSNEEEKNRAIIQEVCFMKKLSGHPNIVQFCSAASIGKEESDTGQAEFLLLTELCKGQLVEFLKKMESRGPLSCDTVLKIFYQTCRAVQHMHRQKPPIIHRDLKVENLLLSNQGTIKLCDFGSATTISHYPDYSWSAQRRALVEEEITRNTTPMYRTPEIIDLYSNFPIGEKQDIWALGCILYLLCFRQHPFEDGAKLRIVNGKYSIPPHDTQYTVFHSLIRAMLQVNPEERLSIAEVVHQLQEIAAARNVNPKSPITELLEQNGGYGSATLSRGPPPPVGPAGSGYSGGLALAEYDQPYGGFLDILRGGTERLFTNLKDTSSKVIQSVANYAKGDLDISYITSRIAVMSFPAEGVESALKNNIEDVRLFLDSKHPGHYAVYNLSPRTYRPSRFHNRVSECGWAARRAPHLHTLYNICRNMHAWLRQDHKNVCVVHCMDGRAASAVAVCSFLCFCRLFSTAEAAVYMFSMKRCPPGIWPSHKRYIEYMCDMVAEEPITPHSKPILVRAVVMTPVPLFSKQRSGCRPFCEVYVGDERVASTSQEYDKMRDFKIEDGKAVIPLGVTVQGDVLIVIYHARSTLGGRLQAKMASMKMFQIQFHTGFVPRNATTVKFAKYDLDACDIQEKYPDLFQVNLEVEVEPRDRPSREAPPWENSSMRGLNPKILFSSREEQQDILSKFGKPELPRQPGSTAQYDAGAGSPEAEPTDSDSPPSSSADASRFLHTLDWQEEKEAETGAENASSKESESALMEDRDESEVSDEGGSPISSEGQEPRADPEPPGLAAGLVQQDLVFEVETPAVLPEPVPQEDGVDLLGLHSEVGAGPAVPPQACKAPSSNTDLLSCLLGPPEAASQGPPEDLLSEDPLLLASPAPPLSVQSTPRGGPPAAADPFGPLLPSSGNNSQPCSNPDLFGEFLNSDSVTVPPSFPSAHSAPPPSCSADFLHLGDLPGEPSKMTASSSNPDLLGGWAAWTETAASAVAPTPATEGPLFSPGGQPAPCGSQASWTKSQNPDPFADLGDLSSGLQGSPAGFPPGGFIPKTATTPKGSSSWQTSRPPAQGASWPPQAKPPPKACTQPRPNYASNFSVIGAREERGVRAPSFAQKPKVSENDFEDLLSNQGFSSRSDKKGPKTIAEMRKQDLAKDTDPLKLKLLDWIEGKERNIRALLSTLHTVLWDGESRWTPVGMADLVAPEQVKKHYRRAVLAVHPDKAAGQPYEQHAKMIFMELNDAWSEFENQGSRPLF
As to the kind of experiment: binding to immobilized V16742 (IVA1/IVA2, HeLa lysate, MS).

Experiment [2] addresses T2, NT5DC1 (IPI00177965) (Homo sapiens, UniProt Q5TFE4).
T2 construct: endogenous in cells; host or cells: HeLa S3 cell lysate
T2 sequence (Q5TFE4 1-455): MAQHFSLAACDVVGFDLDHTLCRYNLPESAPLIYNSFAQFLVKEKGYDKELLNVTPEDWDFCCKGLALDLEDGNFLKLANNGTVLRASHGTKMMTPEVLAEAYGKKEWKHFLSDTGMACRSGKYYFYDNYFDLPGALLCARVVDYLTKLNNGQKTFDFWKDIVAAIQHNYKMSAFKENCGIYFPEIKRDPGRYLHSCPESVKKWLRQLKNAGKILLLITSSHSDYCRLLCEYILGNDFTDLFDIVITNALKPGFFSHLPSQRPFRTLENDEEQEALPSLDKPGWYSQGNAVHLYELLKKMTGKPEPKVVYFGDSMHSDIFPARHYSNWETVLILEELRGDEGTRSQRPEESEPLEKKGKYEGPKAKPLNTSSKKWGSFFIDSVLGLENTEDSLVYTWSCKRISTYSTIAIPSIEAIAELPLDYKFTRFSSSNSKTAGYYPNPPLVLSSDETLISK
Put plainly: binding to VI16742 beads (HeLa lysate, SILAC MS).

The target of experiment [3] is NUDT12 (Homo sapiens, UniProt Q9BQG2).
NUDT12, sequence (Q9BQG2 whole entry): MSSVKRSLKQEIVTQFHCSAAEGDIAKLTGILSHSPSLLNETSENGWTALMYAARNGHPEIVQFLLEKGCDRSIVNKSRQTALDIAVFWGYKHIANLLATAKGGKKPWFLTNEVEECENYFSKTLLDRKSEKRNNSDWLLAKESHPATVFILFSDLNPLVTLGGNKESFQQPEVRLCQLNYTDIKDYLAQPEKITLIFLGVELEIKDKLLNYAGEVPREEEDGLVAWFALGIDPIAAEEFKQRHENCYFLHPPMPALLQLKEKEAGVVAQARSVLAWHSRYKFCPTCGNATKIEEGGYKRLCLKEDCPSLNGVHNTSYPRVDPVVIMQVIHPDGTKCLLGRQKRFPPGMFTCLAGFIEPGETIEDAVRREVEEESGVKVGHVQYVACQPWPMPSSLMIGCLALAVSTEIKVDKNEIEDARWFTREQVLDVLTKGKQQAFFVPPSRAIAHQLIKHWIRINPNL
Experiment [4] has as its target RPL7A (Homo sapiens, UniProt P62424).

Each structure is given as a SMILES string. Like-named read-outs stand apart in the source and are kept apart here.

For `CC(C)n1c(=O)ccc2cnc(Nc3ccc(OCCN)cc3)nc21` [compound 16742], the “Percent bound at 1.87 μM 16742 conc” value in experiment [1] (EXPERIMENT 1) amounted to 8.35%; in experiment [1] (EXPERIMENT 2), 6.15%. The entries for the “Percent bound at 8.74 μM 16742 conc” value in experiment [1] (EXPERIMENT 1) and in experiment [1] (EXPERIMENT 2) were 29.77% and 27.34%, respectively. Also, the “Percent bound at 52 μM 16742 conc” value is 69.07% in experiment [1] (EXPERIMENT 1) and 63.94% in experiment [1] (EXPERIMENT 2). Also, the Kd in experiment [1] (EXPERIMENT 1, read-out: Kd) amounted to 21.9 µM; in experiment [1] (EXPERIMENT 2, read-out: Kd), 26.7 µM; in experiment [1] (read-out: Kd Avg), 24.3 µM.
In the case of `CC(C)n1c(=O)ccc2cnc(Nc3ccc(OCCN)cc3)nc21` [V16742], in experiment [2] (control beads vs first incubation), the “rAVERAGE (CTRL/1 INC)” value came out at 0.07. For the same molecule, in experiment [2] (immobilized VI16742), the Ki stood at 94.8 µM. The “rAVERAGE (2 INC/1 INC)” value in experiment [2] (second vs first incubation) turned out to be 0.65.
`COc1cc2ncnc(Nc3ccc(F)c(Cl)c3)c2cc1OCCCN1CCOCC1` [gefitinib]: in experiment [3], the “rAVERAGE (10 nM/0 nM Gef.)” value is given as 1.04, the “rAVERAGE (100 nM/0 nM Gef.)” value was 0.93, the “rAVERAGE (1000 nM/0 nM Gef.)” value came out at 0.92 and the “rAVERAGE (10000 nM/0 nM Gef.)” value came to 0.09. Moreover, in experiment [4], the “rAVERAGE (10 nM/0 nM Gef.)” value is on record as 0.92, the “rAVERAGE (100 nM/0 nM Gef.)” value worked out at 0.88, the “rAVERAGE (1000 nM/0 nM Gef.)” value was 0.59 and the “rAVERAGE (10000 nM/0 nM Gef.)” value is reported as 0.79.
